Assay results published in patent US20150216903A1, “COMPOUNDS FOR IMPROVED VIRAL TRANSDUCTION” (BLUEBIRD BIO, INC., priority 2012, published 2015).

Assays:
CD34+ cells [1] = assay: 7-Day liquid culture, FACS analysis after transduction with GFP+ lentivirus; assay type: cell-based, human
Description: (§1) One vial of CD34+ cells (AllCells) were thawed by incubating at 37° C. for 1-2 minutes and contents were transferred to 10 mL Stem Cell Growth Media (hereafter referred to as SCGM) in a 15-mL conical tube. Cells were spun for 5 minutes at 1500 RPM in a standard tabletop centrifuge, resuspended in 10 mL SCGM and counted on a hemacytometer. A volume correlating with an appropriate number of cells was transferred to a fresh 15-mL conical tube, and again spun for 5 minutes at 1500 RPM. Cells were resuspended to the desired cell concentration in SCGM+1× cytokines (100 ng/mL SCF, 100 ng/mL TPO, 100 ng/mL FltL, and 30 ng/mL IL-3), and plated on a sterile non-adherent surface at 37° C. in a standard humidified tissue culture incubator (5% CO2).
(§2) Pre-stimulated cells (Example 1) were counted after 18-24 hours of culture. The cells were collected and spun for 5 minutes at 1500 RPM. 1.2×10^6 pre-stimulated CD34^+ cells were resuspended in 60 uL 10× cytokines (1000 ng/mL SCF, 1000 ng/mL TPO, 1000 ng/mL FltL, and 300 ng/mL IL-3), 7.8 uL protamine sulfate, 111 uL viral supernatant, and 361.2 uL SCGM. 90 uL cell/virus suspension (about 200,000 cells) was added to each well of a standard non-adherent 96-well plate. dmPGE2 was added during this viral transduction step at a final concentration of 100 uM, 50 uM, 25 uM, 12.5 uM, 1 uM, or 0 uM.
Cells were incubated at 37° C. in a standard humidified tissue culture incubator (5% CO2).
Aliquots of 10 mM dmPGE2 in DMSO were prepared from 1 mg previously processed dmPGE2 (Cayman Chemicals). Briefly, air was pipetted into the vial of dmPGE2 until methyl acetate was evaporated. 263 uL DMSO was added to the PGE2 remaining in the vial, and aliquots of 25 uL were added to 1.5 mL Eppendorf tubes and stored at −80° C. 10× working stock solutions were prepared by serial dilution of dmPGE2 in SCGM, and were then added to cells at appropriate working concentrations, according to Table 2. Cells were then incubated at 37° C. in a standard humidified tissue culture incubator (5% CO2).
(§3) After 24 hours of culture with virus and dmPGE2, cells were washed prior to subsequent functional validation assays. Washing was performed by transferring cells to a 96-well U-bottom plate and spinning for 5 minutes at 1500 RPM in a standard tabletop centrifuge. Media was aspirated and cells were resuspended in 200 uL SCGM. Cells were spun again for 5 minutes at 1500 RPM and media was aspirated. Cells were again resuspended in 200 uL SCGM then spun for 5 minutes at 1500 RPM, and again the media was aspirated. Particular functional validation assays are described below.
(§4) Washed cells were resuspended in 200 uL SCGM+lx cytokines (as described in Example 1) and transferred to a standard 12-well non-adherent tissue culture plate containing an additional 800 uL SCGM+lx cytokines Cells were maintained for an additional 6 days in a standard humidified tissue culture incubator (5% CO2) and then subjected Vector Copy Number analysis (Example 5) and FACS analysis. For FACS analysis, cells were assayed for the presence of a virally-encoded transgene, green fluorescent protein (GFP). The frequency of the virally-labeled cells within the pool of cultured cells was quantified as the frequency of GFP+ cells within the population. The mean fluorescence intensity of labeled cells was quantified.
Tables 3A-C indicate the dose-response of dmPGE2 in promoting viral transduction of CD34+ cells for three separate experiments. CD34+ cells were thawed and pre-stimulated with SCF, TPO, FltL, and IL3, then transduced (A) with GFP+ lentivirus at a multiplicity of infection of 25, (B) with GFP+ lentivirus at a multiplicity of infection of 5, or (C) transduced with an ALD (ABCD1)-expressing lentivirus at a multiplicity of infection of 25. Cells were exposed to dmPGE2 during the viral transduction step (24-48 hours of culture). Cells were then washed and analyzed by flow cytometry and PCR after approximately 1 week in culture. […]

CD34+ cells [2] = assay: FACS staining after transduction with ALD (ABCD1)-expressing lentivirus; assay type: cell-based, human; conditions: ABCD1 lentivirus MOI 25
Description: as §1, §2, §3, §4
Tables 3A-C indicate the dose-response of dmPGE2 in promoting viral transduction of CD34+ cells for three separate experiments. CD34+ cells were thawed and pre-stimulated with SCF, TPO, FltL, and IL3, then transduced (A) with GFP+ lentivirus at a multiplicity of infection of 25, (B) with GFP+ lentivirus at a multiplicity of infection of 5, or (C) transduced with an ALD (ABCD1)-expressing lentivirus at a multiplicity of infection of 25. Cells were exposed to dmPGE2 during the viral transduction step (24-48 hours of culture). Cells were then washed and analyzed by flow cytometry and PCR after approximately 1 week in culture. The percentage of cells positive for GFP (A, B) or ALD (C) via FACS staining is indicated, along with the mean fluorescent intensity (MFI) and vector copy number (VCN) (A, B).

HSCs = conditions: published data, Goessling et al., Cell Stem Cell 2011; cited from earlier work

With `CCCCC(C)(C)[C@H](O)/C=C/[C@H]1[C@H](O)CC(=O)[C@@H]1C/C=C\CCCC(=O)O` [dmPGE2, 16,16-dimethyl PGE2] the “% Positive (GFP)” value (CD34+ cells [1]; dmPGE2 12.5 uM during transduction (24-48 hours of culture), GFP lentivirus MOI 5) was 17.84%, the “% Positive (GFP)” value (CD34+ cells [1]; dmPGE2 12.5 uM during transduction (24-48 hours of culture), GFP lentivirus MOI 25) was 54.71% and the MFI (CD34+ cells [1]; dmPGE2 12.5 uM during transduction, GFP lentivirus MOI 5) was 530,218.50. The MFI (CD34+ cells [1]; dmPGE2 12.5 uM during transduction, GFP lentivirus MOI 25) was 759,442.75, the “% Positive (GFP)” value (CD34+ cells [1]; dmPGE2 25 uM during transduction (24-48 hours of culture), GFP lentivirus MOI 5) was 18.69% and the “% Positive (GFP)” value (CD34+ cells [1]; dmPGE2 25 uM during transduction (24-48 hours of culture), GFP lentivirus MOI 25) was 59.99%. The MFI (CD34+ cells [1]; dmPGE2 25 uM during transduction, GFP lentivirus MOI 5) was 562,428.00, the MFI (CD34+ cells [1]; dmPGE2 25 uM during transduction, GFP lentivirus MOI 25) was 845,691.00 and the “% Positive (GFP)” value (CD34+ cells [1]; dmPGE2 50 uM during transduction (24-48 hours of culture), GFP lentivirus MOI 5) was 36.80%. For the same compound, the “% Positive (GFP)” value (CD34+ cells [1]; dmPGE2 50 uM during transduction (24-48 hours of culture), GFP lentivirus MOI 25) was 67.62%, the MFI (CD34+ cells [1]; dmPGE2 50 uM during transduction, GFP lentivirus MOI 5) was 656,703.50 and the MFI (CD34+ cells [1]; dmPGE2 50 uM during transduction, GFP lentivirus MOI 25) was 977,806.75. For the same compound, the “% Positive (GFP)” value (CD34+ cells [1]; dmPGE2 100 uM during transduction (24-48 hours of culture), GFP lentivirus MOI 5) was 42.97%, the “% Positive (GFP)” value (CD34+ cells [1]; dmPGE2 100 uM during transduction (24-48 hours of culture), GFP lentivirus MOI 25) was 81.53% and the MFI (CD34+ cells [1]; dmPGE2 100 uM during transduction, GFP lentivirus MOI 5) was 732,716.25. The MFI (CD34+ cells [1]; dmPGE2 100 uM during transduction, GFP lentivirus MOI 25) was 1,513,504.00, the “% Positive (ALD)” value (CD34+ cells [2]; dmPGE2 1 uM during transduction (24-48 hours of culture)) was 34.13% and the “% Positive (ALD)” value (CD34+ cells [2]; dmPGE2 12.5 uM during transduction (24-48 hours of culture)) was 45.36%. The “% Positive (ALD)” value (CD34+ cells [2]; dmPGE2 25 uM during transduction (24-48 hours of culture)) was 43.76%, the “% Positive (ALD)” value (CD34+ cells [2]; dmPGE2 50 uM during transduction (24-48 hours of culture)) was 56.10% and the “% Positive (ALD)” value (CD34+ cells [2]; dmPGE2 100 uM during transduction (24-48 hours of culture)) was 72.26%. For the same compound, the “promotion of viral transduction of HSCs” value (HSCs) was “unable to promote viral transduction of HSCs”.
